In patent US5698574A, “5-membered heteroaryl-oxazolidinones” (Bayer Aktiengesellschaft, priority 1994, dated 1997):
≈ marks a conversion by molar mass, not a printed value.

Columns and labels:
Test in all cases: minimum inhibitory concentration (MIC), series dilution on Iso-Sensitest agar
Format in all cases: cell-based
[1] = system: Staph 48N; conditions: 37° C., about 20 hours, about 10^4 colony-forming particles per point
Procedure: (§1) The minimum inhibitory concentrations (MIC) were determined by the series dilution method on Iso-Sensitest agar (Oxoid). A series of agar plates which contained concentration of the active compound which decreased by two-fold dilution in each case was prepared for each test substance. The agar plates were inoculated with a Multipoint inoculator (Denley). Overnight cultures of the pathogens which had been diluted beforehand such that each inoculation point contained about 10^4 colony-forming particles were used for the inoculation. The inoculated agar plates were incubated at 37° C. and the germ growth was read off alter about 20 hours. The MIC value (μg/ml) indicates the lowest concentration of active compound at which no growth was detectable with the naked eye.

[2] = system: Staph 9TV; conditions: 37° C., about 20 hours, about 10^4 colony-forming particles per point
Procedure: as §1

[3] = system: Staph 133; conditions: 37° C., about 20 hours, about 10^4 colony-forming particles per point
Procedure: as §1

[4] = system: Psdm. Bonn; conditions: 37° C., about 20 hours, about 10^4 colony-forming particles per point
Procedure: as §1

[5] = system: E. coli Neumann; conditions: Escherichia coli, 37° C., about 20 hours, about 10^4 colony-forming particles per point
Procedure: as §1

[6] = system: Klebs. 57 USA; conditions: 37° C., about 20 hours, about 10^4 colony-forming particles per point
Procedure: as §1

[7] = system: Staph 25701; conditions: 37° C., about 20 hours, about 10^4 colony-forming particles per point
Procedure: as §1

With CC(=O)NC[C@H]1CN(c2cc3cc(Br)ccc3s2)C(=O)O1 [Example 22] the MIC [1] was 2 µg/mL (≈ 5.42 µM), the MIC [2] was 2 µg/mL (≈ 5.42 µM) and the MIC [3] was 4 µg/mL (≈ 10.8 µM). For the same compound, the MIC [4] was over 32 µg/mL, the MIC [5] was over 32 µg/mL and the MIC [6] was over 32 µg/mL. For the same compound, the MIC [7] was 1 µg/mL (≈ 2.71 µM).

For CC(=O)NC[C@H]1CN(c2cc(Br)cs2)C(=O)O1 [Example 26], the MIC [1] was 8 µg/mL (≈ 25.1 µM), the MIC [2] was 8 µg/mL (≈ 25.1 µM) and the MIC [3] was 8 µg/mL (≈ 25.1 µM). For the same compound, the MIC [4] was over 32 µg/mL, the MIC [5] was over 32 µg/mL and the MIC [6] was over 32 µg/mL. It also gave an MIC [7] of 8 µg/mL (≈ 25.1 µM).

In the case of CC(=O)NC[C@H]1CN(c2ccc(-c3ccc(C)cc3)s2)C(=O)O1 [Example 39, (5S)-3-{2[5-(4-Methylphenyl)]thiophenyl}-5-acetyl-aminomethyl-oxazolidin-2-one], the MIC [1] was 2 µg/mL (≈ 6.05 µM), the MIC [2] was 1 µg/mL (≈ 3.03 µM) and the MIC [3] was 2 µg/mL (≈ 6.05 µM). For the same compound, the MIC [4] was over 32 µg/mL, the MIC [5] was over 32 µg/mL and the MIC [6] was over 32 µg/mL. It also gave an MIC [7] of 2 µg/mL (≈ 6.05 µM).

CC(=O)NC[C@H]1CN(c2ccc(-c3ccccc3C=O)s2)C(=O)O1 [Example 40, (5S)-3-{2[5-(2-Formylphenyl)]thiophenyl}-5-acetylamino-methyl-oxazolidin-2-one] showed an MIC [1] of 4 µg/mL (≈ 11.6 µM), an MIC [2] of 1 µg/mL (≈ 2.9 µM) and an MIC [3] of 2 µg/mL (≈ 5.81 µM). The MIC [4] was over 32 µg/mL, the MIC [5] was over 32 µg/mL and the MIC [6] was over 32 µg/mL. It also gave an MIC [7] of 2 µg/mL (≈ 5.81 µM).

CC(=O)NC[C@H]1CN(c2ccc(-c3csc(C=O)c3)s2)C(=O)O1 [Example 41] showed an MIC [1] of 2 µg/mL (≈ 5.71 µM), an MIC [2] of 2 µg/mL (≈ 5.71 µM) and an MIC [3] of 2 µg/mL (≈ 5.71 µM). For the same compound, the MIC [4] was over 32 µg/mL, the MIC [5] was over 32 µg/mL and the MIC [6] was over 32 µg/mL. The MIC [7] was 2 µg/mL (≈ 5.71 µM).

In the case of CC(=O)NC[C@H]1CN(c2ccc(-c3ccccc3)s2)C(=O)O1 [Example 42], the MIC [1] was 4 µg/mL (≈ 12.6 µM), the MIC [2] was 2 µg/mL (≈ 6.32 µM) and the MIC [3] was 2 µg/mL (≈ 6.32 µM). The MIC [4] was over 32 µg/mL, the MIC [5] was over 32 µg/mL and the MIC [6] was over 32 µg/mL. For the same compound, the MIC [7] was 4 µg/mL (≈ 12.6 µM).

CC(=O)NC[C@H]1CN(c2ccc(-c3cccc(C=O)c3)s2)C(=O)O1 [Example 43] showed an MIC [1] of 1 µg/mL (≈ 2.9 µM), an MIC [2] of 1 µg/mL (≈ 2.9 µM) and an MIC [3] of 1 µg/mL (≈ 2.9 µM). For the same compound, the MIC [4] was over 32 µg/mL, the MIC [5] was over 32 µg/mL and the MIC [6] was over 32 µg/mL. For the same compound, the MIC [7] was 1 µg/mL (≈ 2.9 µM).

CC(=O)NC[C@H]1CN(c2ccc(-c3ccc(C=O)cc3)s2)C(=O)O1 [Example 44] was tested, and the MIC [1] was 0.25 µg/mL (≈ 0.726 µM), the MIC [2] was 0.25 µg/mL (≈ 0.726 µM) and the MIC [3] was 0.25 µg/mL (≈ 0.726 µM). For the same compound, the MIC [4] was over 32 µg/mL, the MIC [5] was over 32 µg/mL and the MIC [6] was over 32 µg/mL. For the same compound, the MIC [7] was 0.25 µg/mL (≈ 0.726 µM).

In the case of CC(=O)NC[C@H]1CN(c2ccc(-c3ccc(C(C)=O)cc3)s2)C(=O)O1 [Example 46], the MIC [1] was 2 µg/mL (≈ 5.58 µM), the MIC [2] was 0.5 µg/mL (≈ 1.4 µM) and the MIC [3] was 2 µg/mL (≈ 5.58 µM). For the same compound, the MIC [4] was over 32 µg/mL, the MIC [5] was over 32 µg/mL and the MIC [6] was over 32 µg/mL. For the same compound, the MIC [7] was 2 µg/mL (≈ 5.58 µM).

CC(=O)NC[C@H]1CN(c2ccc(-c3ccc(F)cc3)s2)C(=O)O1 [Example 51] gave an MIC [1] of 2 µg/mL (≈ 5.98 µM), an MIC [2] of 1 µg/mL (≈ 2.99 µM) and an MIC [3] of 4 µg/mL (≈ 12 µM). It also gave an MIC [4] of over 32 µg/mL, an MIC [5] of over 32 µg/mL and an MIC [6] of over 32 µg/mL. For the same compound, the MIC [7] was 2 µg/mL (≈ 5.98 µM).

For CC(=O)NC[C@H]1CN(c2ccc(-c3cccc(N)c3)s2)C(=O)O1 [Example 56], the MIC [1] was 4 µg/mL (≈ 12.1 µM), the MIC [2] was 4 µg/mL (≈ 12.1 µM) and the MIC [3] was 8 µg/mL (≈ 24.1 µM). It also gave an MIC [4] of over 32 µg/mL, an MIC [5] of over 32 µg/mL and an MIC [6] of over 32 µg/mL. It also gave an MIC [7] of 4 µg/mL (≈ 12.1 µM).

CC(=O)NC[C@H]1CN(c2cc(-c3cccc(C=O)c3)cs2)C(=O)O1 [Example 59] showed an MIC [1] of 2 µg/mL (≈ 5.81 µM), an MIC [2] of 1 µg/mL (≈ 2.9 µM) and an MIC [3] of 4 µg/mL (≈ 11.6 µM). The MIC [4] was over 32 µg/mL, the MIC [5] was over 32 µg/mL and the MIC [6] was over 32 µg/mL. The MIC [7] was 2 µg/mL (≈ 5.81 µM).

In the case of CC(=O)NC[C@H]1CN(c2cc(-c3ccc(C=O)cc3)cs2)C(=O)O1 [Example 60], the MIC [1] was 8 µg/mL (≈ 23.2 µM), the MIC [2] was 8 µg/mL (≈ 23.2 µM) and the MIC [3] was 16 µg/mL (≈ 46.5 µM). It also gave an MIC [4] of over 32 µg/mL, an MIC [5] of over 32 µg/mL and an MIC [6] of over 32 µg/mL. It also gave an MIC [7] of 8 µg/mL (≈ 23.2 µM).

CC(=O)NC[C@H]1CN(c2ccc(-c3ccc(CO)cc3)s2)C(=O)O1 [Example 101, (5S)-3-(2-[5-(4-hydroxymethyl)phenyl]thiophenyl)-5-acetylamino-methyl-oxazolidin-2-one] gave an MIC [1] of 2 µg/mL (≈ 5.77 µM), an MIC [2] of 2 µg/mL (≈ 5.77 µM) and an MIC [3] of 2 µg/mL (≈ 5.77 µM). For the same compound, the MIC [4] was over 32 µg/mL, the MIC [5] was over 32 µg/mL and the MIC [6] was over 32 µg/mL. For the same compound, the MIC [7] was 2 µg/mL (≈ 5.77 µM).

With CC(=O)NC[C@H]1CN(c2ccc(-c3cccc(CO)c3)s2)C(=O)O1 [Example 102] the MIC [1] was 8 µg/mL (≈ 23.1 µM), the MIC [2] was 8 µg/mL (≈ 23.1 µM) and the MIC [3] was 8 µg/mL (≈ 23.1 µM). For the same compound, the MIC [4] was over 32 µg/mL, the MIC [5] was over 32 µg/mL and the MIC [6] was over 32 µg/mL. The MIC [7] was 8 µg/mL (≈ 23.1 µM).
